Laboratory results as given in the supplement of paper PMC10307832.

Columns and labels:
Shikonin + Trametinib = compound: CC(C)=CC[C@@H](O)C1=CC(=O)c2c(O)ccc(O)c2C1=O [Shikonin] + CC(=O)Nc1cccc(-n2c(=O)n(C3CC3)c(=O)c3c(Nc4ccc(I)cc4F)n(C)c(=O)c(C)c32)c1 [Trametinib] (partner 0.02 µM); test: relative viability (nuclei count vs DMSO), 5 days (fraction); higher = more cells survive
Procedure, shortened: (§1)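 Dosing by pin tool came one day after lung cancer cell lines were seeded in 1536-well plates, using either one drug or a fixed anchor-drug dose plus five library-drug doses (not always all listed) in √10 steps. After 5 days, nuclei were counted on 4× images. Relative viability is treated-well nuclei count divided by vehicle-well nuclei count, and values are medians of duplicate plates.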

Shikonin + AZD7762 = compound: CC(C)=CC[C@@H](O)C1=CC(=O)c2c(O)ccc(O)c2C1=O [Shikonin] + NC(=O)Nc1cc(-c2cccc(F)c2)sc1C(=O)N[C@H]1CCCNC1 [AZD7762] (partner 0.2 µM); test: as above
Procedure, shortened: as §1

Cell Line	relative viability (Shikonin + Trametinib; first compound 0.01 µM)	relative viability (Shikonin + Trametinib; first compound 0.1 µM)	relative viability (Shikonin + Trametinib; first compound 0.3162 µM)	relative viability (Shikonin + Trametinib; first compound 1 µM)	relative viability (Shikonin + AZD7762; first compound 0.01 µM)	relative viability (Shikonin + AZD7762; first compound 0.1 µM)	relative viability (Shikonin + AZD7762; first compound 0.3162 µM)	relative viability (Shikonin + AZD7762; first compound 1 µM)
201T	0.724	0.777	0.75	0.707	0.638	0.657	0.625	0.603
A-427	0.776	0.816	0.821	0.779	0.771	0.78	0.694	0.75
ABC-1	–	–	–	–	–	1.13	0.644	0.741
BEN	1.13	1.06	1.03	1.19	0.744	0.807	0.718	0.694
CAL-12T	0.346	0.376	0.243	0.28	0.606	0.751	0.622	0.736
COR-L23	0.769	0.685	0.622	0.508	–	–	–	–
COR-L 105	0.387	0.445	0.442	0.387	–	–	–	–
ChaGo-K-1	0.883	0.98	0.903	0.972	0.942	0.906	0.913	0.876
EKVX	0.326	0.336	0.389	0.398	0.744	0.698	0.851	0.703
EMC-BAC-2	0.863	0.947	1	0.851	1.15	1.32	1.21	1.16
EPLC-272H	0.286	0.335	0.265	0.244	0.194	0.265	0.241	0.176
H3255	0.658	0.544	0.613	0.548	0.909	0.977	0.943	0.911
HARA	0.68	0.54	0.893	0.627	0.259	0.348	0.271	0.368
HCC-15	0.389	0.35	0.414	0.418	1.33	1.18	1.34	1.24
HCC-44	1.08	1.01	0.996	1.08	1.03	1.01	1.05	1.04
HCC-78	0.773	0.906	0.828	0.734	0.647	0.74	0.534	0.694
HCC-366	0.359	0.363	0.336	0.451	0.281	0.25	0.308	0.269
HCC-827	0.561	0.496	0.563	0.517	0.203	0.216	0.2	0.197
HOP-62	0.389	0.374	0.394	0.401	0.949	0.648	0.584	0.646
LC-2-ad	0.962	1.02	1.02	0.945	0.756	0.919	0.863	0.949
LCLC-97TM1	0.179	0.237	0.2	0.202	0.286	0.188	0.227	0.362
LCLC-103H	0.662	0.683	0.663	0.698	0.796	0.889	0.815	0.954
LK-2	0.884	0.935	0.799	0.732	0.368	0.428	0.424	0.231
LOU-NH91	0.815	0.839	0.838	0.791	0.839	0.864	0.816	0.84
LU99A	0.537	0.563	0.567	0.478	0.381	0.334	0.687	0.323

Cell Line	relative viability (Shikonin + Trametinib; first compound 0.01 µM)	relative viability (Shikonin + Trametinib; first compound 0.1 µM)	relative viability (Shikonin + Trametinib; first compound 0.3162 µM)	relative viability (Shikonin + Trametinib; first compound 1 µM)	relative viability (Shikonin + AZD7762; first compound 0.01 µM)	relative viability (Shikonin + AZD7762; first compound 0.1 µM)	relative viability (Shikonin + AZD7762; first compound 0.3162 µM)	relative viability (Shikonin + AZD7762; first compound 1 µM)
LXF-289	0.668	0.756	0.712	0.701	1.13	1.15	1.14	1.18
NCI-H23	0.356	0.395	0.472	0.42	0.223	0.27	0.268	0.231
NCI-H322M	0.498	0.459	0.513	0.564	0.59	0.568	0.451	0.572
NCI-H358	0.124	0.124	0.121	0.126	0.425	0.62	0.607	0.603
NCI-H441	0.468	0.487	0.528	0.451	1.39	0.935	1.16	1.43
NCI-H460	0.159	0.164	0.131	0.135	0.739	0.874	0.597	0.658
NCI-H520	0.685	0.631	0.677	0.679	–	–	–	–
NCI-H522	0.747	0.747	0.871	0.646	0.912	0.957	0.864	0.806
NCI-H596	0.94	0.827	0.841	0.839	1.06	1.14	1.09	1.09
NCI-H647	0.414	0.356	0.443	0.451	0.646	0.406	0.429	0.529
NCI-H650	0.988	1.19	0.996	0.982	0.962	1.07	1.17	0.947
NCI-H661	0.559	0.536	0.505	0.576	–	–	–	–
NCI-H727	0.351	0.375	0.389	0.409	0.682	0.584	0.732	0.647
NCI-H838	0.619	0.505	0.551	0.564	0.97	1.03	0.97	1.1
NCI-H1355	0.405	0.42	0.424	0.395	0.739	0.898	0.825	0.787
NCI-H1395	0.994	1.18	1.09	0.923	0.375	0.409	0.366	0.448
NCI-H1437	0.539	0.433	0.458	0.504	1.12	1.1	1.15	1.11
NCI-H1648	0.422	–	0.464	0.503	0.829	–	0.825	0.457
NCI-H1650	0.582	0.492	0.523	0.491	–	–	–	–
NCI-H1651	0.882	0.873	0.882	0.83	0.487	0.517	0.536	0.44
NCI-H1666	0.896	0.855	1.02	0.772	0.776	0.9	1	0.887
NCI-H1703	–	–	–	–	–	0.125	0.124	0.113
NCI-H1734	0.664	0.771	0.747	0.732	0.557	0.552	0.595	0.55
NCI-H1755	0.703	0.812	0.756	0.742	0.384	0.422	0.373	0.427
NCI-H1792	0.476	0.327	0.424	0.553	0.663	0.618	0.604	0.694

Cell Line	relative viability (Shikonin + Trametinib; first compound 0.01 µM)	relative viability (Shikonin + Trametinib; first compound 0.1 µM)	relative viability (Shikonin + Trametinib; first compound 0.3162 µM)	relative viability (Shikonin + Trametinib; first compound 1 µM)	relative viability (Shikonin + AZD7762; first compound 0.01 µM)	relative viability (Shikonin + AZD7762; first compound 0.1 µM)	relative viability (Shikonin + AZD7762; first compound 0.3162 µM)	relative viability (Shikonin + AZD7762; first compound 1 µM)
NCI-H1793	0.393	0.414	0.392	0.417	0.555	0.531	0.494	0.629
NCI-H1915	0.308	0.31	0.309	0.298	0.695	0.752	0.728	0.729
NCI-H1944	0.382	0.431	0.415	0.469	0.454	0.558	0.763	0.561
NCI-H1975	0.275	0.367	0.33	0.321	0.746	0.683	0.808	0.8
NCI-H1993	0.526	0.516	0.563	0.568	0.524	0.667	0.632	0.906
NCI-H2009	0.256	0.292	0.245	0.254	–	–	–	–
NCI-H2023	0.546	0.534	0.64	0.56	–	–	–	–
NCI-H2085	0.601	0.502	0.574	0.513	1.02	1.06	0.957	1.05
NCI-H2087	0.198	0.194	0.189	0.18	1.38	1.12	1.35	1.23
NCI-H2126	0.549	0.553	0.607	0.571	1.03	1.01	1.11	1.08
NCI-H2170	0.937	0.97	0.959	0.981	0.912	0.737	0.975	0.905
NCI-H2228	0.342	0.441	0.536	0.494	–	–	–	–
NCI-H2342	0.902	0.686	0.88	0.843	0.503	0.451	0.471	0.472
NCI-H2347	0.272	0.273	0.279	0.249	0.77	0.947	0.829	0.712
NCI-H2405	0.622	0.725	0.653	0.573	0.794	0.986	0.716	0.77
NCI-H3122	0.183	0.292	0.211	0.266	0.973	1.07	1.05	0.959
PC-3 [JPC-3]	0.664	0.688	0.669	0.616	0.825	0.846	0.755	1
PC-14	0.936	0.9	0.893	0.769	0.381	0.274	0.438	0.576
RERF-LC-KJ	0.97	0.728	0.991	0.743	1.04	0.788	1.26	1.02
SK-LU-1	0.46	0.485	0.513	0.449	–	–	–	–
SK-MES-1	0.595	0.57	0.575	0.71	–	–	–	–
SW 900	0.809	0.934	0.969	0.741	0.769	0.634	0.262	0.542
SW 1573	0.615	0.502	0.502	0.112	–	–	–	–
